The record followed here is ChEMBL document CHEMBL1149309, “Potent, selective and low-calcemic inhibitors of CYP24 hydroxylase: 24-sulfoximine analogues of the hormone 1alpha,25-dihydroxyvitamin D(3)” (J Med Chem, 2004).

Assay [1] addresses T1, 1,25-dihydroxyvitamin D(3) 24-hydroxylase, mitochondrial (Homo sapiens, UniProt Q07973).
T1 sequence (Q07973 whole entry): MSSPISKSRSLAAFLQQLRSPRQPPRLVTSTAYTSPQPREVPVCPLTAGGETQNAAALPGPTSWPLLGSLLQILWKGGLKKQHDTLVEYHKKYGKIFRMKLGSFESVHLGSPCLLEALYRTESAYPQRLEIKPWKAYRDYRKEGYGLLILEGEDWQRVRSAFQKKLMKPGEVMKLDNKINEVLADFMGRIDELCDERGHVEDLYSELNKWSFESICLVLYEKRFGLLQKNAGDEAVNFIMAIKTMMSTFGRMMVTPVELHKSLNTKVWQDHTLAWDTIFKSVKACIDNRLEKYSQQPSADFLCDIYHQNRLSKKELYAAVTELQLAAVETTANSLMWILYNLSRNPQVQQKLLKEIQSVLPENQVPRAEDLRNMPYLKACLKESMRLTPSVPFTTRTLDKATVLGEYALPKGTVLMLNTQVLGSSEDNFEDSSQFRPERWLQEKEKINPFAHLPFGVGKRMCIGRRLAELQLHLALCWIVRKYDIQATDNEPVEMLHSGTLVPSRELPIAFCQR
Kind of assay: Inhibition of human CYP24 hydroxylase expressed in V79 cells. Format: cell-based.

Assay [2] concerns the target T2, 25-hydroxyvitamin D-1 alpha hydroxylase, mitochondrial (Homo sapiens, UniProt O15528).
T2 sequence (O15528 whole entry): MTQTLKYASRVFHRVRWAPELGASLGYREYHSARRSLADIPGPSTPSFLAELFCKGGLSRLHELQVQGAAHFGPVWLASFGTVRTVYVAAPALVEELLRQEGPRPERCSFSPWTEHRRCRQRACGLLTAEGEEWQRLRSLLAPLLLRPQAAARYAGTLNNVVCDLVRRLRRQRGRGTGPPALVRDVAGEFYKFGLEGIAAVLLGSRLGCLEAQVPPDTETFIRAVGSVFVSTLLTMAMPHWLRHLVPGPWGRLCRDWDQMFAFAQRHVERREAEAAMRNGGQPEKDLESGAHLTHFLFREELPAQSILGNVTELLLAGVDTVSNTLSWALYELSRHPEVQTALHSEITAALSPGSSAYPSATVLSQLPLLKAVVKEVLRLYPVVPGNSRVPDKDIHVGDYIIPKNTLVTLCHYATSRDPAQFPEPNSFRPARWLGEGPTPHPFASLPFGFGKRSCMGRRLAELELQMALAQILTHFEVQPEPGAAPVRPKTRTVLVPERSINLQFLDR
In words: Inhibition of human CYP27B hydroxylase expressed in SW900 cells. Format: cell-based.

In assay [3] the target is T3, Vitamin D3 receptor (Homo sapiens) (UniProt P11473).
T3 sequence (whole entry): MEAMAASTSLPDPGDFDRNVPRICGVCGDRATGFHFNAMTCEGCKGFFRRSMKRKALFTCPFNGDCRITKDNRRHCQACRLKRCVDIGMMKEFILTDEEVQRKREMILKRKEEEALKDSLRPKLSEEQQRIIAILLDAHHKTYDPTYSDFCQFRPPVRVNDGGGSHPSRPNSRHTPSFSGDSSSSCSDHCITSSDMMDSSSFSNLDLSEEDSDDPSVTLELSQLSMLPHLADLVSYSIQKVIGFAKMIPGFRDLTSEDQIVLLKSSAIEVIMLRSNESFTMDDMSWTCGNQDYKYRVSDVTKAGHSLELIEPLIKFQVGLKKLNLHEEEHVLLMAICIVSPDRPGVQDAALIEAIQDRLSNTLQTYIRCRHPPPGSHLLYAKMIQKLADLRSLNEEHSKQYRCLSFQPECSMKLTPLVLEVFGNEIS
To be noted: CV-1.
Description: Effect on VDR-mediated transcriptional activity in CV1 cells transfected with human recombinant VDR

Usually IC50 stands for the midpoint of a concentration-inhibition curve. Low readings indicate greater potency, high ones weaker potency.

Regarding `C=C1/C(=C\C=C2/CCC[C@]3(C)[C@@H]([C@H](C)/C=C(\F)[S+](=N)([O-])c4ccccc4)CC[C@@H]23)C[C@@H](O)C[C@@H]1O` (stereo partly drawn), the IC50 in assay [1] is greater than 1000 nM.
The compound `C=C1/C(=C\C=C2/CCC[C@]3(C)[C@@H]([C@H](C)CC[S+](=N)([O-])c4ccc(F)cc4)CC[C@@H]23)C[C@@H](O)C[C@@H]1O` (stereo in doubt; 3i) displayed an IC50 in assay [1] of 44 nM. That is a double-digit nanomolar value.
For the compound `C=C1/C(=C\C=C2/CCC[C@]3(C)[C@@H]([C@H](C)CC4([S+](=N)([O-])c5ccccc5)CC4)CC[C@@H]23)C[C@@H](O)C[C@@H]1O` (stereo in doubt; 3f), the concentration for half-maximal inhibition (IC50) in assay [1] came to 20.5 nM.
Consider `C=C1/C(=C\C=C2/CCC[C@]3(C)[C@@H]([C@H](C)CCS(=N)(=O)c4ccccc4)CC[C@@H]23)C[C@@H](O)C[C@@H]1O` (stereo in doubt; 3a) [listing 1 of 2 here], for which the IC50 in assay [1] turned out to be 7.4 nM; in assay [2], 554 nM.
On to `C[C@H](CC[S+](=N)([O-])c1ccccc1)[C@H]1CC[C@H]2/C(=C/C=C3C[C@@H](O)C[C@H](O)C3)CCC[C@]12C` (stereo in doubt; 3c), for which the IC50 in assay [1] was 13 nM.
As to `C=C1/C(=C\C=C2/CCC[C@]3(C)[C@@H]([C@H](C)/C=C/[S+](=N)([O-])c4ccccc4)CC[C@@H]23)C[C@@H](O)C[C@@H]1O` (stereo partly drawn), the IC50 in assay [1] was greater than 1000 nM.
Regarding `C=C1/C(=C\C=C2/CCC[C@]3(C)[C@@H]([C@H](C)CCS(=N)(=O)c4ccccc4)CC[C@@H]23)C[C@@H](O)C[C@@H]1O` (stereo in doubt; 3a) [listing 2 of 2 here], the ED50 in assay [3] is greater than 1000 nM.
`C[C@H](CC[S+](=N)([O-])c1ccccc1)[C@H]1CC[C@H]2/C(=C/C=C3C[C@@H](O)C[C@H](O)C3)CCC[C@]12C` (stereo in doubt; 3d) yielded an IC50 in assay [1] of 9.7 nM.
Compound `C=C1/C(=C\C=C2/CCC[C@]3(C)[C@@H]([C@H](C)CCS(=N)(=O)c4ccccc4)CC[C@@H]23)C[C@@H](O)C[C@@H]1O` (stereo in doubt; 3b) came in with an ED50 in assay [3] greater than 1000 nM.
In assay [1], `C=C1/C(=C\C=C2/CCC[C@]3(C)[C@@H]([C@@H](C)/C=C/[S+](=N)([O-])c4ccccc4)CC[C@@H]23)C[C@@H](O)C[C@@H]1O` (stereo partly drawn) returned an IC50 of 549 nM.
In assay [1], `C=C1/C(=C\C=C2/CCC[C@]3(C)[C@@H]([C@H](C)CC4([S+](=N)([O-])c5ccccc5)CC4)CC[C@@H]23)C[C@@H](O)C[C@@H]1O` (stereo in doubt; 3g) registered an IC50 of 50 nM.
The compound `C=C1CC[C@H](O)C/C1=C/C=C1\CCC[C@]2(C)[C@@H]([C@H](C)CC[S+](=N)([O-])c3ccccc3)CC[C@@H]12` (stereo partly drawn) registered an IC50 in assay [1] of 75 nM. This IC50 is about 1.5-fold higher than that of the compound before.
